The values that follow come from patent US8481538B2, “Heterocyclic inhibitors of c-Met and uses thereof” (Vertex Pharmaceuticals Incorporated, priority 2006, dated 2013).

This test concerns the target c-Met (Homo sapiens, UniProt P08581). The test can be described thus: Ki determination for the inhibition of c-Met (standard radiometric kinase assay). Type of test: biochemical. The conditions noted are these: radiometric 33P-ATP assay, 1.0 nM c-Met, 35 μM ATP, 0.5 mg/mL polyE4Y, competitive tight-binding fit. As for the experimental part: Ki Determination for the Inhibition of c-Met
Compounds of the invention were screened for their ability to inhibit c-Met kinase activity using a standard radiometric assay. Briefly, in this kinase assay the transfer of the terminal ^33P-phosphate in ^33P-ATP to substrate polyE4Y is interrogated. The assay was carried out in 96-well plates to a final volume of 100 μL per well containing 1.0 nM c-Met, 100 mM HEPES (pH 7.5), 10 mM MgCl2, 25 mM NaCl, 0.01% BSA, 1 mM DTT, 0.5 mg/mL polyE4Y, and 35 μM ATP. Accordingly, compounds of the invention were dissolved in DMSO to make 10 mM initial stock solutions. Serial dilutions in DMSO were then made to obtain the final solutions for the assay. A 1.5 μL aliquot of DMSO or inhibitor in DMSO was added to each well. The reaction was initiated by the addition of ^33P-ATP and polyE4Y (obtained from Sigma). After 20 min, the reaction was quenched with 50 μL of 30% trichloroacetic acid (TCA) containing 4 mM ATP. The reaction mixture was transferred to the 0.66 mm GF filter plates (Corning) and washed three times with 5% TCA. Following the addition of 50 μL of Ultimate Gold™ high efficiency scintillant (Packard Bioscience), the samples were counted in a Packard TopCount NXT Microplate Scintillation and Luminescence Counter (Packard BioScience). The Ki values were calculated using Microsoft Excel Solver macros to fit the data to the kinetic model for competitive tight-binding inhibition.

Chain of c-Met (P08581 25-1390): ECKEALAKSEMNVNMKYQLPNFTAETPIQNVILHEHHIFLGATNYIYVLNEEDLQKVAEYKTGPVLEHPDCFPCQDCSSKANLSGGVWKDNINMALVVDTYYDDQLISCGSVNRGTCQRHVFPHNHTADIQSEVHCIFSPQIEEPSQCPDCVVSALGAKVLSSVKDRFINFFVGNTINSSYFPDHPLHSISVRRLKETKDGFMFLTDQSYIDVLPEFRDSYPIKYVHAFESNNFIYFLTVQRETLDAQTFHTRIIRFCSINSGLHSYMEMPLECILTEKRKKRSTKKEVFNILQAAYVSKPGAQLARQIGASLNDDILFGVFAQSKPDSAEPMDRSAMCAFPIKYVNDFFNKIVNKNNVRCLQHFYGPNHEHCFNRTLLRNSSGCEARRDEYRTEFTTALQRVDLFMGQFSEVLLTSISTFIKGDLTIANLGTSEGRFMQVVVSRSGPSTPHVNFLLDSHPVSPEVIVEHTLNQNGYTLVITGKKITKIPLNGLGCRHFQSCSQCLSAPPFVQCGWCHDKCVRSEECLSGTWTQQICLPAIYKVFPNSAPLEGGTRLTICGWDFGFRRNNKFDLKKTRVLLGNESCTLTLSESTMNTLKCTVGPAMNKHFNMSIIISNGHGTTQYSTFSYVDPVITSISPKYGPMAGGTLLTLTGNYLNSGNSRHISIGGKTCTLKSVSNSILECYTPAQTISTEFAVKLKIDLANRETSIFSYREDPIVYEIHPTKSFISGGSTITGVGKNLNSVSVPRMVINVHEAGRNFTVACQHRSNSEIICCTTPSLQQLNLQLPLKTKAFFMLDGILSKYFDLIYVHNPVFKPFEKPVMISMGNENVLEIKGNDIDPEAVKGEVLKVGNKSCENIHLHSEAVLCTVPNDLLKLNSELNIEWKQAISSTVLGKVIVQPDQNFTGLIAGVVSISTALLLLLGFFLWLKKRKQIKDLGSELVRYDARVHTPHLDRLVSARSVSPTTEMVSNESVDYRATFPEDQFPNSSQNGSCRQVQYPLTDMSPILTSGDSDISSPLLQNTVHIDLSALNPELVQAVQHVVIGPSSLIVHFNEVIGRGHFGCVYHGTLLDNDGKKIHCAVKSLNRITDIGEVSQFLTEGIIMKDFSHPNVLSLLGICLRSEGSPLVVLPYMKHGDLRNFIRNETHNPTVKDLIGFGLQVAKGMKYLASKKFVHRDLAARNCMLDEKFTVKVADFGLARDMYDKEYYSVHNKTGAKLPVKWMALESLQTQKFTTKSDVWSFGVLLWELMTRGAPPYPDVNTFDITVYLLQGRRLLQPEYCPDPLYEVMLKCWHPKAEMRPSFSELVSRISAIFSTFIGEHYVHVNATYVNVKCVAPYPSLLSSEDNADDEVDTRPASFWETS

On to `C[C@@H](NC(=O)c1nc(-c2cnn(C3CCNCC3)c2)cnc1N)c1nnc2ccc(Nc3cccc(Cl)c3)nn12` [Compound 62], for which the Ki (as a rule, a dissociation constant, usually derived from enzyme kinetics or from competition with a known ligand) was at most 0.25 µM. As for `C[C@@H](NC(=O)c1cc(-c2cnn(C)c2)cnc1N)c1nnc2sc(Nc3cccc(Cl)c3)nn12` [Compound 63], the figure is 0.25 to 2.5 µM; as for `C[C@@H](NC(=O)c1nc(-c2ccccc2)cnc1N)c1nnc2ccc(Cl)nn12` [Compound 64], 0.25 to 2.5 µM. Take `C[C@@H](NC(=O)c1nc(-c2ccc(CN)cc2)cnc1N)c1nnc2ccc(Nc3cccc(Cl)c3)nn12` [Compound 65]: the Ki is at most 0.25 µM. As for `C[C@@H](NC(=O)c1nc(-c2ccc(CN3CC[C@@H](O)C3)cc2)cnc1N)c1nnc2ccc(Nc3cccc(Cl)c3)nn12` [Compound 66], the figure is at most 0.25 µM. In turn, `C[C@@H](NC(=O)c1nc(-c2ccc(CN3CC[C@H](O)C3)cc2)cnc1N)c1nnc2ccc(Nc3cccc(Cl)c3)nn12` [Compound 67] gave a Ki of at most 0.25 µM. As for `C[C@@H](NC(=O)c1nc(-c2ccc(C3(O)CCNCC3)cc2)cnc1N)c1nnc2ccc(Nc3cccc(Cl)c3)nn12` [Compound 68], the figure is at most 0.25 µM.

`C[C@@H](NC(=O)c1nc(-c2cccc(N3CCNCC3)c2)cnc1N)c1nnc2ccc(Nc3cccc(Cl)c3)nn12` [Compound 69]: the inhibition constant Ki is at most 0.25 µM. Turning to `C[C@@H](NC(=O)c1nc(-c2ccc(CN3CCCC3)c(F)c2)cnc1N)c1nnc2ccc(Nc3cccc(Cl)c3)nn12` [Compound 70], the Ki is at most 0.25 µM.

With `CCOc1ccc2nnc([C@@H](C)NC(=O)c3nc(-c4ccc(CN5CCCC5)cc4)cnc3N)n2n1` [Compound 71], the inhibition constant (Ki) was in the range of 0.25 to 2.5 µM. Turning to `C[C@@H](NC(=O)c1nc(-c2ccc(N3CCNCC3)cc2)cnc1N)c1nnc2ccc(Nc3cccc(Cl)c3)nn12` [Compound 72], the Ki is at most 0.25 µM.

Take `C[C@@H](NC(=O)c1nc(-c2ccccc2)cnc1N)c1nnc2sc(N)nn12` [Compound 74]: the Ki lay within 0.25 to 2.5 µM. As for `Cc1nn2c([C@@H](C)NC(=O)c3nc(-c4ccccc4)cnc3N)nnc2s1` [Compound 75], the figure is 0.25 to 2.5 µM; as for `C[C@@H](NC(=O)c1nc(-c2ccc(CN(C)C)cc2)cnc1N)c1nnc2ccc(Nc3cccc(Cl)c3)nn12` [Compound 76], at most 0.25 µM. As for `C[C@@H](NC(=O)c1nc(-c2cccc(C3CCNCC3)c2)cnc1N)c1nnc2ccc(Nc3cccc(Cl)c3)nn12` [Compound 77], the figure is at most 0.25 µM; as for `CNCc1ccc(-c2cnc(N)c(C(=O)N[C@H](C)c3nnc4ccc(Nc5cccc(Cl)c5)nn34)n2)cc1` [Compound 78], at most 0.25 µM. As for `Cc1ccc2nnc([C@@H](C)NC(=O)c3nc(-c4ccc(CN5CCCC5)cc4)cnc3N)n2n1` [Compound 79], the figure is 0.25 to 2.5 µM.

As for `C[C@@H](NC(=O)c1nc(-c2ccc(CN3CCCC3)cc2)cnc1N)c1nnc2ccc(-c3ccccc3)nn12` [Compound 80], the Ki was at most 0.25 µM.

As to `C[C@@H](NC(=O)c1nc(-c2cccs2)cnc1N)c1nnc2ccc(-c3ccccc3)nn12` [Compound 81], the Ki was 0.25 to 2.5 µM.

`C[C@@H](NC(=O)c1nc(-c2cnn(C)c2)cnc1N)c1nnc2ccc(-c3ccccc3)nn12` [Compound 82]: the Ki lay within 0.25 to 2.5 µM. As for `C[C@@H](NC(=O)c1nc(-c2cnn(C3CCNCC3)c2)cnc1N)c1nnc2ccc(-c3ccccc3)nn12` [Compound 83], the figure is at most 0.25 µM.
